Measured values published in PMC9814250, “Single step syntheses of (1S)-aryl-tetrahydroisoquinolines by norcoclaurine synthases” (Communications Chemistry, 2020).

Experiments:
MxSafC [1] = target: T1, MxSafC (Myxococcus xanthus, UniProt Q50859); assay: HPLC, O-methylation to C6-OMe-7a; assay type: biochemical; details: SAM generated in situ (EcMAT, EcMTAN), Mg2+, pH 7.5, 37 °C, 24 h; selective for (S)
T1 construct: gene safC; recombinant in E. coli BL21(DE3), His-trap purified

RnCOMT [2] = target: T2, RnCOMT (Rattus norvegicus, UniProt P22734); assay: HPLC, O-methylation to C6-OMe product; details: SAM generated in situ (EcMAT, EcMTAN), Mg2+, pH 7.5, 37 °C, 24 h; not enantioselective
T2 construct: gene Comt; recombinant in E. coli BL21(DE3), used as lysate
T2 sequence (P22734 1-264): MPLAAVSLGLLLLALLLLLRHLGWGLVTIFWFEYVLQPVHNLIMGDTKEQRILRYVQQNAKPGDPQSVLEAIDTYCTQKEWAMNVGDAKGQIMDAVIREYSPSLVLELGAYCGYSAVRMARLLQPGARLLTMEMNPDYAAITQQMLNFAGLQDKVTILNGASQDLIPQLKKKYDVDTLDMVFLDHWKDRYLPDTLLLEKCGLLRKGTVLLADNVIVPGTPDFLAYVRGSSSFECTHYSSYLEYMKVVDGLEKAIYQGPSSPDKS

MxSafC [3] = target: T1, MxSafC; assay: HPLC, O-methylation to C6-OMe-7b; assay type: biochemical; details: SAM generated in situ (EcMAT, EcMTAN), Mg2+, pH 7.5, 37 °C, 24 h; selective for (S)
RnCOMT [4] = target: T2, RnCOMT; assay: HPLC, O-methylation to C6/C7-OMe-7b; details: SAM generated in situ (EcMAT, EcMTAN), Mg2+, pH 7.5, 37 °C, 24 h; not enantioselective

SMILES: Oc1cc2c(cc1O)[C@H](C1CCCCC1)NCC2 [5a, (S)-5a]
- HPLC, O-methylation to C6-OMe-7a (MxSafC [1]): MxSafC was found to be selective towards both (S)-5a and (S)-5b
- HPLC, O-methylation to C6-OMe product (RnCOMT [2]): using 5a as the substrate, gave remarkable regioselectivity

SMILES: Oc1cc2c(cc1O)[C@H](c1ccccc1)NCC2 [5b, (S)-5b]
- HPLC, O-methylation to C6-OMe-7b (MxSafC [3]): MxSafC was found to be selective towards both (S)-5a and (S)-5b
- HPLC, O-methylation to C6/C7-OMe-7b (RnCOMT [4]): C6:C7-OMe-7b was observed by ^1H-NMR when 5b was used as the substrate
